Test results reported in publication PMC6270455, “Antibacterial and Herbicidal Activity of Ring-Substituted 3-Hydroxynaphthalene-2-carboxanilides” (Molecules, 2013).
In brackets after ≈: the same amount, converted by molar mass. Several values for one entry are separate records, joined by “and”; a condition that tells them apart may be missing. Equal values may be shown once. Read-outs that look alike come from different tables or passages of the source.

What was measured:
[1] = system: human monocytic leukemia THP-1 cells; type: cell-based; details: 24 h
Procedure: Human monocytic leukemia THP-1 cells were used for in vitro toxicity assay. Cells were obtained from the European Collection of Cell Cultures (ECACC, Salisbury, UK) and routinely cultured in RPMI medium supplemented with 10% fetal bovine serum, 2% L-glutamine, 1% penicillin and streptomycin at 37 °C with 5% CO2. Cytotoxicity was determined using a WST-1 assay kit (Roche Diagnostics, Mannheim, Germany) according to the manufacturer’s instructions. The tested compounds were dissolved in DMSO and added in five increasing concentrations (0.37, 1.1, 3.3, 10, and 30 μmol/L) to the cell suspension in the culture medium. Subsequently, the cells were incubated for 24 h at 37 °C with 5% CO2. WST-1 assays conducted in triplicates were performed as previously described. The median lethal dose values, LD50, were deduced through the production of a dose-response curve. All data were evaluated using GraphPad Prism 5.00 software (GraphPad Software, San Diego, CA, USA).

[2] = system: methicillin-resistant S. aureus SA 3202; test: In vitro antibacterial susceptibility testing, broth dilution micro-method; type: cell-based, Staphylococcus aureus; details: clinical isolate MRSA SA 3202, MH broth, 24 h, 37 °C; for MIC: Staphylococcus aureus
Procedure: (§1) The synthesized compounds were evaluated for in vitro antibacterial activity against representatives of multidrug-resistant bacteria, clinical isolates of methicillin-resistant Staphylococcus aureus (MRSA) 63718, SA 630 and SA 3202 that were obtained from the National Institute of Public Health, Prague, Czech Republic. Staphylococcus aureus ATCC 29213 was used as a reference and quality control strain. Ampicillin (Sigma-Aldrich) was used as the standard. Prior to testing, each strain was passaged onto nutrient agar (Oxoid, Hampshire, UK) with 5% of bovine blood, and bacterial inocula were prepared by suspending a small portion of bacterial colony in sterile phosphate buffered saline (pH 7.2–7.3). The cell density was adjusted to 0.5 McFarland units using a densitometer (Densi-La-Meter, LIAP, Riga, Latvia). The final inoculum was made by 1:20 dilution of the suspension with the Mueller-Hinton broth (MH broth). […] The broth dilution micro-method modified according to NCCLS guidelines in MH broth was used to determine the minimum inhibitory concentration (MIC). Drug-free controls, sterility controls and controls consisted of MH broth and DMSO alone were included. The determination of results was performed visually after 24 h of static incubation in the darkness at 37 °C in an aerobic atmosphere. The MICs were defined as the lowest concentration of the compound at which no visible bacterial growth was observed.

[3] = system: methicillin-resistant S. aureus SA 630; test: as above; type: cell-based, Staphylococcus aureus; details: clinical isolate MRSA SA 630, MH broth, 24 h, 37 °C; for MIC: Staphylococcus aureus
Procedure: as §1

M. kansasii DSM 44162 = test: In vitro antimycobacterial evaluation, broth dilution micro-method; type: cell-based; details: Mycobacterium kansasii, DSM44162, 168 h, Middlebrook 7H9, 7 days, 37 °C
[4] = system: photosynthetic electron transport (PET) in spinach chloroplasts; test: Inhibition of photosynthetic electron transport (PET) in spinach chloroplasts (DCPIP photoreduction); type: biochemical, Spinacia oleracea L.
Procedure: Chloroplasts were prepared from spinach (Spinacia oleracea L.) according to Masarovicova and Kralova. The inhibition of photosynthetic electron transport (PET) in spinach chloroplasts was determined spectrophotometrically (Genesys 6, Thermo Scientific), using an artificial electron acceptor 2,6-dichlorophenol-indophenol (DCIPP) according to Kralova et al., and the rate of photosynthetic electron transport was monitored as a photoreduction of DCPIP. The measurements were carried out in phosphate buffer (0.02 mol/L, pH 7.2) containing sucrose (0.4 mol/L), MgCl2 (0.005 mol/L) and NaCl (0.015 mol/L). The chlorophyll content was 30 mg/L in these experiments and the samples were irradiated (~100 W/m^2 with 10 cm distance) with a halogen lamp (250 W) using a 4 cm water filter to prevent warming of the samples (suspension temperature 22 °C). The studied compounds were dissolved in DMSO due to their limited water solubility. […] The inhibitory efficiency of the studied compounds was expressed by IC50 values, i.e., by molar concentration of the compounds causing 50% decrease in the oxygen evolution rate relative to the untreated control.

[5] = system: Staphylococcus aureus ATCC 29213; test: In vitro antibacterial susceptibility testing, broth dilution micro-method; type: cell-based; details: 24 h, 37 °C; for MIC: ATCC29213, MH broth
Procedure: as §1

[6] = system: methicillin-resistant Staphylococcus aureus (MRSA) 63718; test: as above; type: cell-based; details: clinical isolate MRSA 63718, MH broth, 24 h, 37 °C; for MIC: Staphylococcus aureus
Procedure: as §1

[7] = Lipophilicity determination by RP-HPLC (capacity factor, log k); type: physicochemical; details: RP-HPLC capacity factor logarithm; C18 column, MeOH 60% / H2O 40%, 40 °C
Procedure: Lipophilicity of the studied compounds was determined by RP-HPLC as capacity factor logarithm (log k) and calculated as log P using ACD/Percepta software. […] It is important to note that lipophilicity also has a great impact on target and off-target interactions, as mentioned below.
A HPLC system Agilent 1200 equipped with DAD detector (Agilent, Santa Clara, CA, USA) was used. A chromatographic column Symmetry® C18 5 μm, 4.6 × 250 mm, Part No. WAT054275, (Waters Corp., Milford, MA, USA) was used. The HPLC separation process was monitored and evaluated by EZChrom Elite software ver. 3.3.2 (Agilent). Isocratic elution by a mixture of MeOH p.a. (60%) and H2O-HPLC Mili-Q grade (40%) as a mobile phase was used. The total flow of the column was 1.0 mL/min, injection 20 μL, column temperature 40 °C and sample temperature 10 °C. The detection wavelength 210 nm was chosen. The KI methanolic solution was used for the dead time (tD) determination. Retention times (tR) were measured in minutes. The capacity factors k were calculated according to formula k = (tR − tD)/tD, where tR is the retention time of the solute, whereas tD denotes the dead time obtained using an unretained analyte. Log k, calculated from the capacity factor k, is used as the lipophilicity index converted to log P scale.

[8] = system: Mycobacterium marinum CAMP 5644; test: In vitro antimycobacterial evaluation, broth dilution micro-method; type: cell-based; details: CAMP5644, 504 h, Middlebrook 7H9, 21 days, 28 °C
[9] = system: human monocytic leukemia THP-1 cells; details: assessed in this line formerly; cited from earlier work
[10] = as quoted in the chlorophyll a fluorescence discussion
[11] = phosphate buffer pH 7.2, DCPIP acceptor

Compound	MIC [2] [µM]	MIC [3] [µM]	MIC (M. kansasii DSM 44162) [µM]	IC50 [4, 10] [µM]	IC50 [4, 11]	MIC [5] [µM]	MIC [6] [µM]	log k [7]	MIC [8] [µM]	MIC MRSA 3202 [2] [µM]	MIC MRSA 630 [3] [µM]	MIC SA ([5]; MH broth) [µM]	MIC MRSA 63718 [6] [µM]	LD50 [1] [µmol/L]	LD50 [9] [µmol/L]
O=C(Nc1ccccc1Br)c1cc2ccccc2cc1O [6a, N-(2-Bromophenyl)-3-hydroxynaphthalene-2-carboxamide]	> 748	> 748	748 (≈ 256 µg/mL)		43.2 µM	> 748	> 748	0.9715	> 748						
CC[C@@]1(O)C(=O)OCc2c1cc1n(c2=O)Cc2cc3ccccc3nc2-1 [camptothecin]															0.20 ± 0.07
CN(C)C(=O)Nc1ccc(Cl)c(Cl)c1 [DCMU, 3-(3,4-dichlorophenyl)-1,1-dimethylurea, reference compound]					~1.9 µM and 1.9 µM										
Cc1ccc(NC(=O)c2cc3ccccc3cc2O)cc1 [3c, 3-Hydroxy-N-(4-methylphenyl)naphthalene-2-carboxamide]	231 (≈ 64.1 µg/mL)	462 (≈ 128 µg/mL)	923 (≈ 256 µg/mL)			> 923	> 923	0.8753	> 923						
O=C(Nc1cccc(Br)c1)c1cc2ccccc2cc1O [6b, N-(3-Bromophenyl)-3-hydroxynaphthalene-2-carboxamide]	187 (≈ 64 µg/mL)	> 748	748 (≈ 256 µg/mL)			> 748	> 748	1.1536	> 748						
O=C(Nc1ccc(Br)cc1)c1cc2ccccc2cc1O [6c, N-(4-Bromophenyl)-3-hydroxynaphthalene-2-carboxamide]	187 (≈ 64 µg/mL)	> 748	374 (≈ 128 µg/mL)			> 748	> 748	1.1459	> 748						
O=C(Nc1cccc(Cl)c1)c1cc2ccccc2cc1O [5b, N-(3-Chlorophenyl)-3-hydroxynaphthalene-2-carboxamide]	215 (≈ 64 µg/mL)	430 (≈ 128 µg/mL)	860 (≈ 256 µg/mL)			> 860	> 860	1.0796	> 860						

The next lines start with results.

MIC [2] [µM]	MIC [3] [µM]	MIC (M. kansasii DSM 44162) [µM]	IC50 [4, 10] [µM]	IC50 [4, 11]	MIC [5] [µM]	MIC [6] [µM]	log k [7]	MIC [8] [µM]	MIC MRSA 3202 [2] [µM]	MIC MRSA 630 [3] [µM]	MIC SA ([5]; MH broth) [µM]	MIC MRSA 63718 [6] [µM]	Compound	LD50 [1] [µmol/L]	LD50 [9] [µmol/L]
97 (≈ 32.1 µg/mL)	> 773	193 (≈ 63.9 µg/mL)	105	105 µM	> 773	> 773	0.8762	193 (≈ 63.9 µg/mL)					O=C(Nc1ccccc1C(F)(F)F)c1cc2ccccc2cc1O [compound 7a, 3-Hydroxy-N-(2-trifluoromethylphenyl)naphthalene-2-carboxamide]	28.6 ± 0.5	
> 873	> 873	54.6 (≈ 16 µg/mL)	53.4	53.4 µM	> 873	> 873	0.6971	> 873					COc1cccc(NC(=O)c2cc3ccccc3cc2O)c1 [compound 2b, 3-Hydroxy-N-(3-methoxyphenyl)naphthalene-2-carboxamide]		
> 830	> 830	415 (≈ 128 µg/mL)		16.9 µM	> 830	> 830	0.8143	> 830					O=C(Nc1cccc([N+](=O)[O-])c1)c1cc2ccccc2cc1O [compound 8b, 3-Hydroxy-N-(3-nitrophenyl)naphthalene-2-carboxamide]	2.5 ± 0.9	
415 (≈ 128 µg/mL)	415 (≈ 128 µg/mL)	830 (≈ 256 µg/mL)		107 µM	> 830	> 830	0.8710	830 (≈ 256 µg/mL)					O=C(Nc1ccccc1[N+](=O)[O-])c1cc2ccccc2cc1O [compound 8a, 3-Hydroxy-N-(2-nitrophenyl)naphthalene-2-carboxamide]		
55 (≈ 16.1 µg/mL)	55 (≈ 16.1 µg/mL)	218 (≈ 63.9 µg/mL)		59.5 µM	55 (≈ 16.1 µg/mL)	55 (≈ 16.1 µg/mL)	0.6916	873 (≈ 256 µg/mL)	55 (≈ 16.1 µg/mL)	55 (≈ 16.1 µg/mL)	55 (≈ 16.1 µg/mL)	55 (≈ 16.1 µg/mL)	COc1ccccc1NC(=O)c1cc2ccccc2cc1O [compound 2a, 3-Hydroxy-N-(2-methoxyphenyl)naphthalene-2-carboxamide]		
> 830	> 830	13 (≈ 4.01 µg/mL)		188 µM	> 830	> 830	0.9175	> 830					O=C(Nc1ccc([N+](=O)[O-])cc1)c1cc2ccccc2cc1O [compound 8c, 3-Hydroxy-N-(4-nitrophenyl)naphthalene-2-carboxamide]		
